# Read-outs that look alike come from different tables or passages of the source.
# Tests used:
# [1] = pKa measurement of lipid with TNS fluorescent probe; type: physicochemical
# Description: This is done with all eight buffers.
# BHK cells = assay: BHK expression; type: cell-based; details: liposomes incubated with BHK cells overnight
# Method: Liposomes with different lipids were incubated with BHK cells overnight and assessed for protein expression potency. From a baseline with RV05 lipid expression could be increased 18× by adding 10% 1,2-diphytanoyl-sn-glycero-3-phosphoethanolamine (DPyPE) to the liposome, 10× by adding 10% 18:2 (cis) phosphatidylcholine, and 900× by instead using RV01.
# RSV F protein = assay: Total IgG titers against F protein after replicon delivery in liposomes with alternative cationic lipids; type: in vivo; details: cationic lipid of RV01 liposomes replaced; 2wp1 and 2wp2
# Description: These liposomes were also used to deliver a replicon encoding full-length RSV F protein. Total IgG titers against F protein two weeks after the first dose (2wp1) are plotted against pKa in FIG. 16. The best results are seen where the pKa is where the cationic lipid has a pKa between 5.7-5.9, but pKa alone is not enough to guarantee a high titer e.g. the lipid must still support liposome formation.
# The cationic lipid in RV01 liposomes (DLinDMA) was replaced by RV16, RV17, RV18 or RV19.
# [2] = probe 6-(p-toluidino)-2-naphthalenesulfonic acid (TNS), lipid alone, TNS fluorescence method, read-out: pKa of cationic lipid
SMILES,"pKa [1, 2]",other results
CCCCC/C=C\C/C=C\CCCCCCCCOCC(CN1CCCC1C)OCCOCCOCCNC(=O)O[C@H]1CC[C@@]2(C)C(=CC[C@H]3[C@@H]4CC[C@H]([C@H](C)CCCC(C)C)[C@@]4(C)CC[C@@H]32)C1 (some centres unmarked) [RV12],,pKa [1]: 7
"CCCCC/C=C\C/C=C\CCCCCCCCOCC(CN(C)C)OCCCCCCCC/C=C\C/C=C\CCCCC (centres unmarked) [RV01, 1,2-dilinoleyloxy-N,N-dimethyl-3-aminopropane, reference compound]",~5.8,increase of protein expression from a baseline with RV05 lipid (BHK cells): 900 ×
CCCCCCCC/C=C\CCCCCCCC(=O)N[C@@H](CCNC(=N)N)C(=O)NCCCCCCCCCCCCCCCC [RV02],> 9,
CCCCCCCC/C=C\CCCCCCCCOCC(C[N+](C)(C)C)OCCCCCCCC/C=C\CCCCCCCC.[Cl-] (centres unmarked) [RV19],,Total IgG titers (FIG. 17) (RSV F protein): lowest results
CCCCC/C=C\C/C=C\CCCCCCCCNC(=O)C(CN(C)C)NC(=O)CCCCCCC/C=C\C/C=C\CCCCC (centres unmarked),6.1,
CCCCC/C=C\C/C=C\CCCCCCCCOCC(CN1CCC(C)(C)C1)OCCOCCO[C@H]1CC[C@@]2(C)C(=CC[C@H]3[C@@H]4CC[C@H]([C@H](C)CCCC(C)C)[C@@]4(C)CC[C@@H]32)C1 (some centres unmarked) [RV05],,pKa [1]: ~5.8
CCCCCCCC/C=C\CCCCCCCCNC(=O)C(CN(C)C)NC(=O)CCCCCCC/C=C\CCCCCCCC (centres unmarked) [RV17],6.1,

# From patent publication US11850305B2 (GLAXOSMITHKLINE BIOLOGICALS SA, priority 2010, dated 2023)
